We go through 32 compounds from patent US20240218019A1, “METHODS AND COMPOSITIONS COMPRISING MHC CLASS I PEPTIDES” (BOARD OF REGENTS, THE UNIVERSITY OF TEXAS SYSTEM, priority 2021, published 2024).

Assay [1] deals with PBMCs from LS Rhesus macaques. Description: IFNγ ELISpot assay with PBMCs from LS Rhesus macaques. The format is cell-based. The settings on record: stimulated 48 h (FIG. 22B). Here is the method: FIG. 22A-B. Validation of the predicted neoAg in LS Rhesus macaques. A) Immunogenicity of neoAg peptide pools and deconvoluted neoAg with ELISpot assay. PBMCs from LS Rhesus macaques (n=4) were stimulated with […] and 12 individual peptides from the pools, concavalin A (+ve control), and DMSO (−ve control) for 48 h. B) ELISpot images. […] Spot forming Units for IFNγ secretion were analyzed and quantitated by ELISpot plate reader.
Since the ultimate goal is to develop a universal LS-cancer vaccine. the inventors then tested the immunogenicity of the ELISpot-reactive peptides in PBMCs from LS Rhesus macaques who carry a pathogenic mutation in the MLH1 gene with pathology similar to human LS. These animals. housed at MD Anderson Cancer Center, spontaneously develop CRC and serve as an ideal preclinical LS model for immune-interception strategies with neoAg vaccines. PBMCs from four different LS Rhesus were stimulated with four peptide pools and 12 individual peptides for ELISpot assays as indicated in FIG. 22A.

For assay [2] the following is noted: LS patients, long-term exposure; cited from earlier work.
The test system of assay [3] is healthy donor PBMCs. The experiment in a line: IFNγ ELISpot assay with peptide-stimulated healthy donor PBMCs. The class given is cell-based, human. Here is the method:
FIG. 10A-D. In vitro validation of predicted neoAgs immunogenicity using ELISpot IFNy assay. A) Schematic of peptide pool, stimulation, and cell culture workflow for ELISpot assays. PBMCs were exposed with the individual peptides from the immunogenic pools in the presence of IL-7 for 3 d, followed by expansion of neoAg-specific T cells in the presence of IL-2. On day 13, expanded cells (10^5 cells per well) were plated onto 96-well ELISpot plate coated with an IFNγ antibody and re-stimulated with the respective peptide for 24 h. IFNy secreting cells were analyzed as spot-forming units (SFUs), and the inventors chose ≥15 SFU produced by peptide stimulated cells over DMSO control cells as an indicator of the peptide immunogenicity. B) Quantification of IFNγ-secreting cells (SFU) obtained from ELISpot assay of 12 neoAg-stimulated PBMCs. ConcA and DMSO served as positive and negative controls. […] C) Selection of 110 predicted MHC-I neoAgs from 3 different categories and percentage of immunogenicity in vitro validation. […] “Most Immunogenic” refers to neoAgs selected from the top 100 prediction list of Most Immunogenic MHC-I neoAgs. “Most recurrent” refers to neoAgs selected from the top 100 prediction list of Most Recurrent MHC-I neoAgs. “Others” refers neoAgs that were predicted to have low immunogenicity and no recurrency. A total of 44 MHC-II neoAgs from 2 different categories were tested. […] “Most Immunogenic” refers to neoAgs selected from the top 100 prediction list of Most Immunogenic MHC-II neoAgs. “Most recurrent” refers to neoAgs selected from the top 100 prediction list of Most Recurrent MHC-II neoAgs. D) pMHC-pentamer staining. Expanded Pan-T cells from the healthy human donor were isolated and stained with WDTC1 neoAg peptide/A*02:01 Pentameric complexes and PerCP-conjugated CD8 antibody followed by flow cytometry analysis. Pan T-cells from healthy human donor PBMC (HLA-A*02:01) were isolated using negative magnetic selection. Isolated Pan T cells were stimulated and expanded with Opto-antigen presenting beads conjugated with WDTC1 neoAg-peptide. Viable Pan-T cells were gated based on FSC and SSC scatter and SYTOX Blue dead cells staining after doublet-exclusion. Flow cytometric plots representing CD8 positive (x-axis) and PE-biotin-pMHC-pentamer positive (y-axis) cells; unstained, unstimulated, and WDTC1 Opto-antigen presenting beads stimulated cells (left to right). The percentage of live CD8+ cells and CD8/WDTC1 neoAg-loaded MHC pentamer positive cells are shown.
FIG. 19A-B. In vitro validation of the pooled predicted neoAgs immunogenicity using ELISpot IFNγ assay. A) Schematic of peptide pool, stimulation, and cell culture workflow for ELISpot assays. All 154 peptides were grouped into 15 peptide pools to stimulate PBMCs from 3 healthy human donors as shown in the illustrations. IFNy secreting cells were analyzed as spot-forming units (SFUs), indicative of immunogenicity. B) Quantification of IFNγ-secreting cells (SFU) obtained from ELISpot assay. Pools 2, 3, 5, 6, 9, and 12 produced at least 15 or higher SFU/10^5 cells from two different PBMCs. […] ConcA and DMSO served as positive and negative controls.
Healthy donor PBMCs were stimulated with 15 peptide pools (Supplementary Table 13) to expand the neoAg-specific CD8^+ T-cells followed by quantitative ELISpot assays (FIG. 19A) to measure immunogenicity. […] To ascertain the immunogenicity of individual peptides within each immunogenic pool. a deconvolution protocol (see Methods) was implemented (FIG. 10A). […] Three percent of MHC-I neoAgs not predicted to be highly immunogenic or recurrent (Others). 5% of the top 100 most immunogenic MHC-II predicted neoags, and 6% of the top 100 most recurrent MHC-II predicted neoags elicited an immunogenic response as assessed by ELISpot assays. Additionally. 18% of all of these elispot-reactive neoags were also predicted from the validation set (FIG. 9C). […]

[4] abbreviates: IFNγ ELISpot, only peptides marked Tested.
[5] abbreviates: IFNγ ELISpot, peptide-stimulated healthy donor PBMCs, peptides grouped in 15 pools.
Setting [6] is: IFNγ ELISpot, peptide-stimulated healthy donor PBMCs.
The mark [7] stands for this setting: IFNγ ELISpot, peptides marked Tested.
[8] abbreviates: IFNγ secretion in healthy donor PBMCs vs unexposed control cells.

Consider “CELSR2: deconvoluted neoAg peptide from CELSR2, tested in LS Rhesus PBMCs (RLDKGNFAGA)”, for which the “immunogenicity of deconvoluted peptides in stimulated rhesus PBMC (ELISpot)” value in assay [1] is “except PLOD1 and CELSR2 were determined immunogenic”.

On to `COc1ccc2cc([C@H](C)C(=O)O)ccc2c1` [naproxen], for which, in assay [2], the “resident immune cells within the mucosal tissue of the colon” value is “increase of resident immune cells within the mucosal tissue of the colon”. As for LLNPVTMNKA [compound 206], in assay [3] (IFNγ ELISpot, peptide tested), the Elispot reactive entry is given as “No”. Take 238 (TKFITYRSKKLIQES) [compound 238]: in assay [3] (setting [4]), the Elispot reactive entry is “No”. On to SPAIPPRPL, for which the Elispot reactive result in assay [3] (setting [5]) is reported as “yes”. On to SELLNPVTMNK [compound 205], for which the Elispot reactive entry in assay [3] (IFNγ ELISpot, peptide tested) was “No”. As to HSWRFCTHIR [compound 154], the “ELISPOT result (positive Yes/No) for peptides marked Tested” value (“ELISPOT result (positive Yes/No)” for short) in assay [3] (setting [6]) is on record as “No”. Regarding TPQDSRQVL [compound 117], the Elispot reactive entry in assay [3] (setting [7]) is on record as “No”.

As for 112 (FLALNQLPQV) [compound 112], the “ELISPOT positive” value in assay [3] (only neoAgs marked Tested with ELISPOT) was “No”. Take FLIDDNFKV [compound 10]: the Elispot reactive result in assay [3] (IFNγ ELISpot, peptide tested) is “Yes”; in assay [3] (setting [8]) it was “Yes”. For RTLLVTCILY [compound 125], the Elispot reactive result in assay [3] (setting [7]) is given as “No”.

On to LLNPVTMNKA, for which the Elispot reactive entry in assay [3] (setting [5]) is “yes”. On the same count and under the same terms, for FQVHFLKSGGLPLVL the value was “yes”. Take FMNSTVFHV [compound 3]: the “ELISPOT result for peptides marked Tested with ELISPOT (Yes/No)” value in assay [3] (setting [6]) is on record as “No”.

As to IQKSWTATTY [compound 39], the Elispot reactive result in assay [3] (setting [4]) and in assay [3] (setting [8]) was “Yes” throughout. With YLFAKAYLV [compound 201], the Elispot reactive entry in assay [3] (IFNγ ELISpot, peptide tested) is reported as “No”. KVPFFSALK [compound 169]: the “ELISPOT result (positive Yes/No)” value in assay [3] (setting [6]) is given as “No”. On to MYFFWPCSL [compound 174], for which the “ELISPOT result (positive Yes/No)” value in assay [3] (setting [6]) is “No”. 325 (ILVALSWMGGLHSFY) [compound 325]: in assay [3] (setting [7]), the Elispot reactive result is on record as “No”. With SMAASPSPK [compound 179], the “ELISPOT result (positive Yes/No)” value in assay [3] (setting [6]) was “No”.

Turning to FLWNSLLAV [compound 12], the Elispot reactive result in assay [3] (IFNγ ELISpot, peptide tested) was “No”. Consider RWMVLRNSWRAVARM, for which the Elispot reactive entry in assay [3] (setting [5]) was “yes”. For the compound CRREYRVTM [compound 135], in assay [3] (setting [6]), the “ELISPOT result (positive Yes/No)” value is on record as “No”. Take QKKLMLLRLNLRKMC: the Elispot reactive entry in assay [3] (setting [5]) was “yes”.

As to 229 (PALLLAEATHKASAL) [compound 229], the Elispot reactive entry in assay [3] (setting [4]) and in assay [3] (setting [7]) was “No” each time. As to RFCPASCSGCY, the Elispot reactive entry in assay [3] (setting [5]) is recorded as “yes”. In the case of LSNVAPPAF [compound 168], in assay [3] (setting [6]), the “ELISPOT result (positive Yes/No)” value is given as “Yes”. The Elispot reactive entry in assay [3] (setting [8]) is “Yes”. KTYMEMHY: in assay [3] (setting [5]), the Elispot reactive result is “yes”. For the compound ELLNPVTMNK [compound 207], the Elispot reactive result in assay [3] (IFNγ ELISpot, peptide tested) was “No”.

As to 354 (PVTPLRVQSVLLLGV) [compound 354], the “ELISpot result (positive response) for peptides tested with ELISpot” value in assay [3] (IFNγ ELISpot, healthy donor PBMCs) is listed as “No”. In the case of SPPLHLCQPL [compound 95], in assay [3] (setting [6]), the “ELISPOT result (positive Yes/No)” value is given as “No” and the “ELISPOT result for peptides marked Tested with ELISPOT (Yes/No)” value was “No”. With YLGTPTWNC [compound 151], the “ELISPOT result (positive Yes/No)” value in assay [3] (setting [6]) is listed as “Yes”. In assay [3] (setting [8]), the Elispot reactive entry is listed as “Yes”.
